Laboratory results as given in the supplement of paper PMC5579334.

Legend:
ST8814 [1] = assay: relative IC50 (inflection point of fitted dose-response curve, CellTox-Green cytotoxicity, 72 h; top asymptote may be below 50%); higher = less potent
Method in brief: (§1)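 MPNST cell lines and primary human Schwann cells were grown for 72 h at 37 °C in 384-well plates containing five 10-fold compound dilutions. CellTox-Green, added before seeding at a final 1:1000 dilution, gave fluorescence from DNA released by disrupted cells, and signals were scaled to vehicle and positive-control wells. Curves were fitted with a four-parameter logistic model. Drug sensitivity score and relative IC50 come from these fits, with IC50 censored at the top concentration.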

STS26T [2] = assay: as above
Method in brief: as §1

S1507-2 [3] = assay: as above
Method in brief: as §1

HSC2 [4] = assay: as above
Method in brief: as §1

HSC1 [5] = assay: as above
Method in brief: as §1

HS-PSS [6] = assay: as above
Method in brief: as §1

HS-Sch-2 = assay: relative IC50 (inflection point of fitted dose-response curve, CellTiter-Glo viability, 72 h; top asymptote may be below 50% inhibition); higher = less potent
Method in brief: (§2)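 For this screen, 384-well plates were preprinted with each compound at five concentrations in 10-fold steps and seeded with MPNST cell lines or primary human Schwann cells at 750–1000 cells per well. Incubation lasted 72 h at 37 °C, 5% CO2, and CellTiter-Glo ATP luminescence, scaled between vehicle and positive-control wells and averaged over duplicates where available, served as viability. Logistic fits with four parameters were applied. Relative IC50 (censored at the top concentration) and drug sensitivity score derive from these fits, and percent inhibition is at the top concentration.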

ST8814 [7] = assay: as above
Method in brief: as §2

STS26T [8] = assay: as above
Method in brief: as §2

YST-1 = assay: as above
Method in brief: as §2

S1507-2 [9] = assay: as above
Method in brief: as §2

HSC2 [10] = assay: as above
Method in brief: as §2

HSC1 [11] = assay: as above
Method in brief: as §2

S462 = assay: as above
Method in brief: as §2

HS-PSS [12] = assay: as above
Method in brief: as §2

Row | SMILES | relative IC50 (ST8814 [1]) [nM] | relative IC50 (STS26T [2]) [nM] | relative IC50 (S1507-2 [3]) [nM] | relative IC50 (HSC2 [4]) [nM] | relative IC50 (HSC1 [5]) [nM] | relative IC50 (HS-PSS [6]) [nM] | relative IC50 (HS-Sch-2) [nM] | relative IC50 (ST8814 [7]) [nM] | relative IC50 (STS26T [8]) [nM] | relative IC50 (YST-1) [nM] | relative IC50 (S1507-2 [9]) [nM] | relative IC50 (HSC2 [10]) [nM] | relative IC50 (HSC1 [11]) [nM] | relative IC50 (S462) [nM] | relative IC50 (HS-PSS [12]) [nM]
1 | Nc1ncnc2c1nc(N)n2[C@@H]1O[C@H](CO)[C@@H](O)[C@H]1O [8-amino-adenosine] | 1730 | 1060 | 2820 | 7010 | 6650 | 4130 | 1230 | 1110 | 1100 | 647 | 885 | 2250 | 1360 | 1080 | 1620
2 | O=C(/C=C/c1cccc(S(=O)(=O)Nc2ccccc2)c1)NO [Belinostat] | 800 | 415 | 1190 | 1700 | 1770 | 1490 | 610 | 321 | 718 | 259 | 364 | 704 | 459 | 762 | 924
3 | CC(C)C[C@H](NC(=O)[C@H](CCc1ccccc1)NC(=O)CN1CCOCC1)C(=O)N[C@@H](Cc1ccccc1)C(=O)N[C@@H](CC(C)C)C(=O)[C@@]1(C)CO1 [Carfilzomib] | 12 | 8.79 | 25.7 | 23 | 24.6 | 25.1 | 2.75 | 8.99 | 8.28 | 4.71 | 17.2 | 9.67 | 11.5 | 4.5 | 11.7
4 | CNC(=O)c1cccc(-c2ccc3c(N4CCOC[C@@H]4C)nc(N4CCOC[C@@H]4C)nc3n2)c1 [AZD2014] | > 10000 | > 10000 | > 10000 | > 10000 | > 10000 | > 10000 | 366 | 654 | 401 | 119 | 335 | 322 | 306 | 364 | 505
5 | Nc1ccccc1NC(=O)c1ccc(CNc2nccc(-c3cccnc3)n2)cc1 [Mocetinostat] | 3100 | 1720 | 3730 | 2710 | 3390 | 2650 | 1400 | 1610 | 1400 | 530 | 1840 | 818 | 921 | 354 | 2200
6 | O=C(Nc1c[nH]nc1-c1nc2ccc(CN3CCOCC3)cc2[nH]1)NC1CC1 [AT9283] | 31.9 | 145 | 167 | 276 | 231 | > 1000 | 332 | 60.2 | 172 | 139 | 94.6 | 79.6 | 83.1 | 122 | 178
7 | CCOc1cc2ncc(C#N)c(Nc3ccc(OCc4ccccn4)c(Cl)c3)c2cc1NC(=O)/C=C/CN(C)C [Neratinib] | > 1000 | > 1000 | > 1000 | > 1000 | > 1000 | > 1000 | 184 | 146 | 178 | 327 | 187 | 211 | 251 | 203 | 160
8 | O=C(CCCCCCC(=O)Nc1ccccc1)NO [Vorinostat] | 3150 | 2570 | 2660 | 3430 | 3780 | 2450 | 1770 | 1690 | 2250 | 687 | 1680 | 1570 | 1310 | 2090 | 2820
9 | CC(C)C[C@H](NC(=O)[C@H](Cc1ccccc1)NC(=O)c1cnccn1)B(O)O [Bortezomib] | 9.88 | 11.2 | 8.94 | 21.4 | 22.6 | 123 | 3.47 | 6.3 | 11 | 10.1 | 10.1 | 6.64 | 7.32 | 5.87 | 51.1
10 | C#Cc1cccc(Nc2ncnc3cc(OC)c(OCCCCCCC(=O)NO)cc23)c1 [CUDC-101] | 1270 | 2500 | 1810 | 984 | 1130 | 1850 | 438 | 801 | 1820 | 159 | 909 | 545 | 470 | 732 | 699
11 | CCC1(c2ccc(N)cc2)CCC(=O)NC1=O (stereo not given) [Aminoglutethimide] | > 10000 | > 10000 | > 10000 | > 10000 | > 10000 | > 10000 | > 10000 | > 10000 | > 10000 | > 10000 | > 10000 | > 10000 | > 10000 | > 10000 | > 10000
12 | CCCCC(=O)OCC(=O)[C@]1(O)Cc2c(O)c3c(c(O)c2[C@@H](O[C@H]2C[C@H](NC(=O)C(F)(F)F)[C@H](O)[C@H](C)O2)C1)C(=O)c1c(OC)cccc1C3=O [Valrubicin] | > 5000 | > 5000 | > 5000 | > 5000 | > 5000 | > 5000 | 264 | 285 | 306 | 97 | 534 | 258 | 238 | 233 | 422
13 | CO[C@H]1/C=C\C=C(/C)C(=O)NC2=CC(=O)C(NCCN(C)C)=C(C[C@@H](C)C[C@H](OC)[C@H](O)[C@@H](C)/C=C(\C)[C@@H]1OC(N)=O)C2=O [Alvespimycin] | 106 | 95.7 | 106 | 187 | 198 | 49 | 47.3 | 54.9 | 72 | 24.4 | 78.4 | 134 | 132 | 48.1 | 45.5
